Measurements reported in PubChem BioAssay (NCI).
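In this assay, cells in 96-well plates receive the compound at five concentrations for 48 hours. Endpoints are linearly interpolated between the surrounding concentrations. Here, GI50 denotes the concentration required for 50% inhibition of growth. TGI denotes the concentration required for complete inhibition of growth.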

How the values were obtained:
Assay in all cases: growth of human tumour cells (NCI), 48 h
T-47D breast = tested on: T-47D breast
SNB-19 CNS = tested on: SNB-19 CNS
SK-MEL-2 melanoma = tested on: SK-MEL-2 melanoma
UO-31 renal = tested on: UO-31 renal
MALME-3M melanoma = tested on: MALME-3M melanoma
CAKI-1 renal = tested on: CAKI-1 renal
UACC-62 melanoma = tested on: UACC-62 melanoma
BT-549 breast = tested on: BT-549 breast
HOP-62 NSCLC = tested on: HOP-62 NSCLC
HCT-116 colon = tested on: HCT-116 colon

SMILES | GI50 (T-47D breast) [µM] | TGI (T-47D breast) [µM] | GI50 (SNB-19 CNS) [µM] | TGI (SNB-19 CNS) [µM] | GI50 (SK-MEL-2 melanoma) [µM] | TGI (SK-MEL-2 melanoma) [µM] | GI50 (UO-31 renal) [µM] | TGI (UO-31 renal) [µM] | GI50 (MALME-3M melanoma) [µM] | TGI (MALME-3M melanoma) [µM] | GI50 (CAKI-1 renal) [µM] | TGI (CAKI-1 renal) [µM] | GI50 (UACC-62 melanoma) [µM] | TGI (UACC-62 melanoma) [µM] | GI50 (BT-549 breast) [µM] | TGI (BT-549 breast) [µM] | GI50 (HOP-62 NSCLC) [µM] | TGI (HOP-62 NSCLC) [µM] | TGI (HCT-116 colon) [µM] | GI50 (HCT-116 colon) [µM]
CCC1=C(c2ccc(OC)cc2)C(C)(C)Oc2c1ccc(O)c2CN1CCCC1 | 1.45 | 4.64 | 6.69 | 56.9 | 1.98 | 3.7 | 2.19 | > 100 | 2.05 | 5.36 | 2.95 | 30.4 | 1.81 | 3.86 | 2.29 | 12.7 | 1.99 | 7.03 |  | 
Cc1ccc(OCC2CO2)c(Br)c1 (stereo unspecified) |  | > 100 |  | > 100 |  |  |  | 39.1 |  | > 100 |  | > 100 |  | 37.7 |  | 0.879 |  | > 100 | 73.3 | 
COc1ccc2c(c1)c(-c1nc(-c3cn(C)c4ccncc34)cs1)cn2C |  |  | 2.26 | 4.73 | 1.76 | 3.28 | 1.58 | 3.17 | 2.02 | 3.58 | 1.8 | 3.26 | 2.09 | 4.78 |  |  | 1.9 | 3.62 |  | 
Oc1ccccc1-c1nn(CNc2ccc(Cl)cc2)c(=S)o1 | 57 | > 100 | > 100 | > 100 | > 100 | > 100 | > 100 | > 100 |  |  | 3.71 | > 100 | 0.633 | > 100 | 61.1 | > 100 | > 100 | > 100 | 51.4 | 18.2
CSC(=O)C[C@@]12O[C@@H]([C@@H](C)C3CCC4[C@@H]5C(O)CC6=CC(=O)C=C[C@]6(C)C5CC[C@@]43C)C[C@](C)(O1)C(C)(C)O2 (stereo partly specified) |  |  |  | 33.8 |  | 45 |  | 24.8 |  | 43.5 |  | 34.9 |  | 27 |  |  |  | 34.8 | 26.4 | 
CC1=CCC2CC1C(C(=O)c1c[nH]c3ccccc13)=NC2(C)C (stereo unspecified) |  | 99.2 |  | > 100 |  |  |  | > 100 |  | > 100 |  | > 100 |  | > 100 |  | > 100 |  | > 100 | > 100 | 
CC(=O)OC12C(C)=C(C)C(=O)N1c1ccccc1N2C(C)=O (stereo unspecified) |  |  |  | > 100 |  | > 100 |  | > 100 |  |  |  | > 100 |  | > 100 |  |  |  | > 100 | > 100 | 
CC1SC(c2ccccc2Cl)N(NC(=O)C(O)c2ccccc2)C1=O (stereo unspecified) |  |  | > 100 | > 100 | > 100 | > 100 | 74.9 | > 100 |  |  | 44.6 | > 100 | 45 | > 100 | > 100 | > 100 | > 100 | > 100 | > 100 | 96.1
COC(=O)CCC(=O)Nc1ccc(Cl)cc1C |  |  |  | > 100 |  | > 100 |  | > 100 |  | > 100 |  | > 100 |  | > 100 |  |  |  | > 100 | > 100 | 
CCOC(=O)C(=Cc1ccc(C#N)cc1)C(=O)OCC | 2.15 | 7.96 | 2.66 | 7.7 | 1.93 | 4.19 | 1.65 | 3.49 |  |  | 2.12 | 5.37 | 1.99 | 4.54 | 2.06 | 4.9 | 2.73 | 9.81 | 4.22 | 2.15
CCN(CC)CCN(CC)CC.CCN(CC)CCN(CC)CC.[Cu+2].[Cu+2].[O-][Cl+3]([O-])([O-])[O-].[OH3+].[OH3+] |  |  | 22 | 36.6 |  |  | > 100 | > 100 | > 100 | > 100 | > 100 | > 100 | 18.3 | 36.4 |  |  | 22.5 | 40.3 | > 100 | 40.2
O=[N+]([O-])c1ccc(-c2csc(N=Nc3c(O)[nH]c4ccccc34)n2)cc1 |  | > 100 |  | > 100 |  | 84.2 |  | 39.2 |  |  |  | 39.4 |  |  |  | 42.8 |  | > 100 | > 100 | 
Nc1nc(=O)n(C2CCC(CO)O2)cc1F (stereo unspecified) |  |  |  | > 100 |  | > 100 |  | > 100 |  | > 100 |  | > 100 |  |  |  |  |  | > 100 |  | 
CC(Oc1ccc2c(-c3ccc(Cl)cc3)cc(=O)oc2c1)C(=O)O (stereo unspecified) |  |  |  | > 100 |  |  |  | > 100 |  | > 100 |  | > 100 |  | > 100 |  |  |  | > 100 | > 100 | 
CSC(=NC(=O)c1ccccc1Cl)SCCSC(=NC(=O)c1ccccc1Cl)SC |  |  |  | > 100 |  | > 100 |  | > 100 |  | > 100 |  | > 100 |  | > 100 |  |  |  | > 100 | > 100 | 
CC(=O)OCc1c(O)c2c([nH]c1=O)CCc1ccccc1-2 |  |  |  | > 350 |  | > 35 |  |  |  | > 35 |  | 130 |  | 119 |  |  |  | > 350 | 110 | 
Cc1ccc(/C=C/C(=O)c2ccc(Cl)c(Cl)c2)cc1 |  |  |  | > 100 |  | > 100 |  | > 100 |  | > 100 |  | > 100 |  | > 100 |  |  |  | > 100 | > 100 | 
O=C1c2ccccc2C(=O)N1CCc1ncc(-c2ccccc2)[nH]1 |  |  |  | > 100 |  | > 100 |  | > 100 |  | > 100 |  | > 100 |  | > 100 |  | > 100 |  | > 100 | > 100 | 
O=S1(=O)c2ccccc2N(O)C2=NCCN21 |  |  |  | > 100 |  | > 100 |  | > 100 |  | > 100 |  | > 100 |  | > 100 |  |  |  | > 100 | > 100 | 
O=C1CCCCCCC2=C1C(Sc1ccccc1)CC2 (stereo unspecified) |  |  |  | > 100 |  |  |  | 92.1 |  | > 100 |  |  |  | > 100 |  |  |  | > 100 | 67.8 | 
